# Experimental data published in ChEMBL document CHEMBL1201862, “PubChem BioAssay data set” (2004).
# “And” between values parts separate entries of the source, which are not always exact repeats. Identical values can stand only once. The source made the active and inactive calls.
# What was measured:
# [1] = target: T1, Dual specificity protein phosphatase 6 (Rattus norvegicus, UniProt Q64346); assay type: functional
# T1 sequence (Q64346 whole entry): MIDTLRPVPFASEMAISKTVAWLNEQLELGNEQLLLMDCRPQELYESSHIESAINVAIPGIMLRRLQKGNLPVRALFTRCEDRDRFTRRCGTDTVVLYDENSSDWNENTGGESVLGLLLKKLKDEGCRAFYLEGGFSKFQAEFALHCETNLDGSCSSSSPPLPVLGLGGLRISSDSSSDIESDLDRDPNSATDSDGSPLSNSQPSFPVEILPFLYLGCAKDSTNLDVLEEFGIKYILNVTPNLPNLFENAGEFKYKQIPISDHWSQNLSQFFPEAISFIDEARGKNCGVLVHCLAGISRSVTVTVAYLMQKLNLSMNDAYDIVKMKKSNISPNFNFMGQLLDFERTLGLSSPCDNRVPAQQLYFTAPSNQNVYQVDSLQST
# [2] = target: T1, Dual specificity protein phosphatase 6
# [3] = target: T2, Tyrosine-protein phosphatase non-receptor type 7 (Homo sapiens, UniProt P35236); assay type: functional
# T2 sequence (P35236 whole entry): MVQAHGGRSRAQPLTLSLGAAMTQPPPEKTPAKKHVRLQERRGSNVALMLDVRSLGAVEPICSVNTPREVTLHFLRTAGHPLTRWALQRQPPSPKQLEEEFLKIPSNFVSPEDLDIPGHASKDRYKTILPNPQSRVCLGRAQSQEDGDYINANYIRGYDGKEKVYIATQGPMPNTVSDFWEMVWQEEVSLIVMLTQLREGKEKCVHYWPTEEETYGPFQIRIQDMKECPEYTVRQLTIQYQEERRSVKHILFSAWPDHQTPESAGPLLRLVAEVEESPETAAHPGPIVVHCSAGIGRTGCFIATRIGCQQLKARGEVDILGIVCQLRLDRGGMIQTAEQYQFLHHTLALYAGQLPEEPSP
# [4] = target: Glyceraldehyde-3-phosphate dehydrogenase (Homo sapiens, UniProt P04406)
# [5] = target: T3, Delta-type opioid receptor (Homo sapiens, UniProt P41143); test: HTS Image-Based Screen for Agonists of the DOR Receptor. [Related pubchem assays (depositor defined):AID1777, AID1786, AID2133]; assay type: functional
# [6] = target: T4, Estrogen receptor beta (Homo sapiens, UniProt Q92731);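 note: recombinant ER-beta bound to coactivator SRC1 peptide in presence of estradiol agonist; inhibitors block coactivator peptide binding and lower the FRET signal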
# [7] = target: T3, Delta-type opioid receptor; test: HTS Image-Based Screen for Antagonists of the DOR Receptor. [Related pubchem assays (depositor defined):AID1777, AID1785, AID1786, AID2133]; assay type: functional
# [8] = target: T5, Kappa-type opioid receptor (Homo sapiens, UniProt P41145); assay type: functional
# [9] = target: T5, Kappa-type opioid receptor; assay type: functional; remark: listed apart in the source
# [10] = target: Estrogen receptor (Homo sapiens, UniProt P03372);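 note: potency for inhibiting coactivator peptide recruitment to the receptor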
# [11] = target: T4, Estrogen receptor beta; test: ERβ–SRC-3 coactivator interaction inhibitors, confirmation, orthogonal assay, biochemical, ELISA, streptavidin-HRP readout (AID 1060)
# [12] = target: Mu-type opioid receptor (Homo sapiens, UniProt P35372); test: HTS Image-Based Screen for Agonists of the MOR Receptor. [Related pubchem assays (depositor defined):AID1777, AID1785, AID1786, AID2133]; assay type: functional;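 note: imaging of beta-arrestin GFP recruitment into spots after receptor activation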
# [13] = A Cell Based Secondary Assay To Explore Cytotoxicity of Compounds that Sensitize Mycobacterium Tuberculosis to Beta-Lactam Antibiotics.; assay type: functional
# [14] = growth suppression of PTEN-null colon cells, dose response, cell-based, HCT116 PTEN knockout (AID 1047); assay type: functional;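 note: HCT116 colon tumor cells with PTEN knocked out; cells exposed to compound for 60 hours before readout; potency for loss of cell viability measured by luminescence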
# [15] = target: Caspase-7 (Homo sapiens, UniProt P55210); test: procaspase-7 activators, dose response, dual procaspase-3/-7 activator project, biochemical, absorbance, human (AID 504330)
# [16] = target: T6, Caspase-3 (Homo sapiens, UniProt P42574); test: procaspase-3 activation potency of dual hits, dose response, counter-screen for dual procaspase-3/7 activator project, biochemical, absorbance, PC-3 D3A mutant (AID 504328)
# T6 sequence (P42574 whole entry): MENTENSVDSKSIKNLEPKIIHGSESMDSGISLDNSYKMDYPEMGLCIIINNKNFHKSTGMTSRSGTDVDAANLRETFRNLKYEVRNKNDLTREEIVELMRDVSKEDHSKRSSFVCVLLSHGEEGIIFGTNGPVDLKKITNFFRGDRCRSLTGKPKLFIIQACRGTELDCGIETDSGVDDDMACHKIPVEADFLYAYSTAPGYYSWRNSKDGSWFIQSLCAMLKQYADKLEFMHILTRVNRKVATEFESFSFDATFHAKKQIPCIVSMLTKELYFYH
# [17] = growth suppression of beta-catenin-knockout colon cells, dose response, cell-based, HCT116, human colon tumor (AID 1045); assay type: functional;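 note: HCT116 colon tumor cells with beta catenin knocked out; cells exposed to compound for 60 hours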
# [18] = target: T7, Coagulation factor XII (Homo sapiens, UniProt P00748); assay type: functional;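 note: activated factor XIIa alpha cleaving a fluorogenic AMC peptide substrate; inhibitor potency from loss of enzyme activity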
# T7 sequence (P00748 whole entry): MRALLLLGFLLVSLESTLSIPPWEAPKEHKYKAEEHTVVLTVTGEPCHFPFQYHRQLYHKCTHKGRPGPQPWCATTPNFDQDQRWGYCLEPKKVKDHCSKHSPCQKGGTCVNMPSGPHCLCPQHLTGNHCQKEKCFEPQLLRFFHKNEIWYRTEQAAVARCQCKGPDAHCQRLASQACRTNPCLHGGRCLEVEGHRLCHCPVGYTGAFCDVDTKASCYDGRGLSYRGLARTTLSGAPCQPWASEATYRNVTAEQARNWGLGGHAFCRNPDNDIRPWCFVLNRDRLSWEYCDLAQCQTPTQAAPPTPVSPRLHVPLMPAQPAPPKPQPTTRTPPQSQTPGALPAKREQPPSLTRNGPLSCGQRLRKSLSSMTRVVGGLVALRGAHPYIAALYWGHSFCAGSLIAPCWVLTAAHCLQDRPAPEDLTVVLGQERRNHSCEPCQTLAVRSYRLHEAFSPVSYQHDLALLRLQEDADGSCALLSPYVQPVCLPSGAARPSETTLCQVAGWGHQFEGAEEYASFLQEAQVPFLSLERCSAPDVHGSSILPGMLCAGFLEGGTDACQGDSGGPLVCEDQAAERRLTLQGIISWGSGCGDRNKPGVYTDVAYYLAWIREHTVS
# [19] = target: Induced myeloid leukemia cell differentiation protein Mcl-1 (Homo sapiens, UniProt Q07820); assay type: functional
# [20] = target: T8, Carboxy-terminal domain RNA polymerase II polypeptide A small phosphatase 1 (Homo sapiens, UniProt Q9GZU7); test: inhibitors of CTDSP1, concentration-response testing, biochemical assay, absorbance-based, actives from ultra-high-throughput screening (AID 540297); assay type: functional
# T8 sequence (Q9GZU7 whole entry): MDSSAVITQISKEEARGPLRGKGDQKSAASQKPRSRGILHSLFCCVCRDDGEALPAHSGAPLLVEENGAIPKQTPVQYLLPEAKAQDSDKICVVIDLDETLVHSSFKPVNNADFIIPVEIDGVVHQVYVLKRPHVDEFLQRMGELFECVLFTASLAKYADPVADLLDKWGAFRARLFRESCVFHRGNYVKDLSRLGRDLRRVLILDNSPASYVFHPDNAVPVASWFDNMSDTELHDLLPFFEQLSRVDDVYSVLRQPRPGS
# [21] = target: Bcl-2-like protein 10 (Homo sapiens, UniProt Q9HD36); test: displacers of TR3 peptide from Bcl-B, primary screen, selectivity assay for Bfl-1 inhibitor project, biochemical, fluorescence polarization, FITC-TR3 peptide (AID 748);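 note: fluorescence polarization from a fluorescein-labelled TR3 peptide binding purified Bcl-B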
# Chain of Bcl-2-like protein 10 (Q9HD36 whole entry): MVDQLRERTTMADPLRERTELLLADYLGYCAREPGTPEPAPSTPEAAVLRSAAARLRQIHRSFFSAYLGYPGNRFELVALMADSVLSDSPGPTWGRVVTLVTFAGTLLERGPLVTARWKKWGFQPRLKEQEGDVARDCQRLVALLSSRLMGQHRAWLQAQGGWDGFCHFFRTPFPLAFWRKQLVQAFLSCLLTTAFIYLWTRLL
# T4 sequence (Q92731 whole entry): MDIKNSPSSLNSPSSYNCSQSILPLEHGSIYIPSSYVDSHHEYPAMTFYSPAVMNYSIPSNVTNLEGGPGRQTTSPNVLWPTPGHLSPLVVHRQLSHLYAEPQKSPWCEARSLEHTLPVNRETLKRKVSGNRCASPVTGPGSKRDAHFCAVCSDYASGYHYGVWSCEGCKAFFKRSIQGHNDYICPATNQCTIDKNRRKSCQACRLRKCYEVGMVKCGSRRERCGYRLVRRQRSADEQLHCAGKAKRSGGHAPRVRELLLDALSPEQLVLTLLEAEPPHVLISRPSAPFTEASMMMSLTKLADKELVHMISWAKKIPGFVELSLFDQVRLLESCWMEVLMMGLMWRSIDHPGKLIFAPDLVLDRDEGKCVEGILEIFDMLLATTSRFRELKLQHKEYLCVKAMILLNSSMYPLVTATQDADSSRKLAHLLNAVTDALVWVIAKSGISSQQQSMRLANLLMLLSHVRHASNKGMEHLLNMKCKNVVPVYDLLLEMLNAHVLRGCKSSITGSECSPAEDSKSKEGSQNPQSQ
# T5 sequence (P41145 whole entry): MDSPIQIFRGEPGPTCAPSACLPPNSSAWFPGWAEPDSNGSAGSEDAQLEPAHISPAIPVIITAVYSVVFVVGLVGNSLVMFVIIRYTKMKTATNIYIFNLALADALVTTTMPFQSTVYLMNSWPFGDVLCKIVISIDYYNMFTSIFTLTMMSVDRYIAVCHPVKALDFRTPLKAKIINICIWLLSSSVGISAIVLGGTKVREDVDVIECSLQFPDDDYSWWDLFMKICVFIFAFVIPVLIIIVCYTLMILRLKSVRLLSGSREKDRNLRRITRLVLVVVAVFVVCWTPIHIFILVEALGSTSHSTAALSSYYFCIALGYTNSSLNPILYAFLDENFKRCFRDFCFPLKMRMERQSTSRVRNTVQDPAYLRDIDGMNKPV
# T3 sequence (P41143 whole entry): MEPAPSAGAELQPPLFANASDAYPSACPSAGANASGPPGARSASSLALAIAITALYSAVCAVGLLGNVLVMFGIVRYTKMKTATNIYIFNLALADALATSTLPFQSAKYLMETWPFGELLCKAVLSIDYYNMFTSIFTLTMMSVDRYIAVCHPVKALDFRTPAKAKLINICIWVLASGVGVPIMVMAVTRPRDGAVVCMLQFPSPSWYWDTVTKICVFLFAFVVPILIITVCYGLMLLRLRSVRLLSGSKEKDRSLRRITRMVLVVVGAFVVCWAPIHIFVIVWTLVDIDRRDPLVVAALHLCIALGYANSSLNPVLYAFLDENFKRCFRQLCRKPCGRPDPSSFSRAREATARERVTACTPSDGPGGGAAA
# Chain of Induced myeloid leukemia cell differentiation protein Mcl-1 (Q07820 whole entry, the tested form may be a part): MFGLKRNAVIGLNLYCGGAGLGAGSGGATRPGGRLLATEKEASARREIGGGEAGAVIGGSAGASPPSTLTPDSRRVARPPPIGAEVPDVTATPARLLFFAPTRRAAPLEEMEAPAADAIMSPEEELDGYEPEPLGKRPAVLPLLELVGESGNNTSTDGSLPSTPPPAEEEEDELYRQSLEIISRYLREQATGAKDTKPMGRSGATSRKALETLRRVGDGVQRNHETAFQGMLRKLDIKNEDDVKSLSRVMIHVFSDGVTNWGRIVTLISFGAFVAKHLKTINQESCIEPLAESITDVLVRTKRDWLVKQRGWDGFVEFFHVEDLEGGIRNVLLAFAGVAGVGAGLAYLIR
# Chain of Glyceraldehyde-3-phosphate dehydrogenase (P04406 whole entry): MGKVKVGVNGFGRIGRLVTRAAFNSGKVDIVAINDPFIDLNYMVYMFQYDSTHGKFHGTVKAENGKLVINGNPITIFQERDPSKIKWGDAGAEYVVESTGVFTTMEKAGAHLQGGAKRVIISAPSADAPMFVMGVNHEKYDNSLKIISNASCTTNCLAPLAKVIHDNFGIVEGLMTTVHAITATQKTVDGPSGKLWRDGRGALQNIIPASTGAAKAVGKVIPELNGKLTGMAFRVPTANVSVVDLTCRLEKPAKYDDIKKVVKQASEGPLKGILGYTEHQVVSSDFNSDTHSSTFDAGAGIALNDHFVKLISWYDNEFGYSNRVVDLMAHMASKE
# Chain of Estrogen receptor (P03372 whole entry): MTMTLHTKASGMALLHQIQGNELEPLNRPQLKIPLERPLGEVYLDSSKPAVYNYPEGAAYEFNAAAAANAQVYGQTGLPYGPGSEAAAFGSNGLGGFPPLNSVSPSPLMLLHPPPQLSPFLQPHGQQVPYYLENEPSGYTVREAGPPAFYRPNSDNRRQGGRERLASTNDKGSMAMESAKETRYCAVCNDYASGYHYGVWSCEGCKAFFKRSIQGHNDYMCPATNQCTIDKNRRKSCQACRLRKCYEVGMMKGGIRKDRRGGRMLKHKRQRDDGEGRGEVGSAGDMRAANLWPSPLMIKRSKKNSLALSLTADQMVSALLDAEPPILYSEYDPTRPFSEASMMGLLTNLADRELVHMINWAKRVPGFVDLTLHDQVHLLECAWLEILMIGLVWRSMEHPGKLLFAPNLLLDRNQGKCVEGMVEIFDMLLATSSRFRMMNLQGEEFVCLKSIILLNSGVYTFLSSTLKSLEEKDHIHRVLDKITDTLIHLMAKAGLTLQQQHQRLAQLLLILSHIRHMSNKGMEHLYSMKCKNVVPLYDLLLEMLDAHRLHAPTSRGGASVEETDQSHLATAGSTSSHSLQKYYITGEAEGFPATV
# Chain of Mu-type opioid receptor (P35372 whole entry): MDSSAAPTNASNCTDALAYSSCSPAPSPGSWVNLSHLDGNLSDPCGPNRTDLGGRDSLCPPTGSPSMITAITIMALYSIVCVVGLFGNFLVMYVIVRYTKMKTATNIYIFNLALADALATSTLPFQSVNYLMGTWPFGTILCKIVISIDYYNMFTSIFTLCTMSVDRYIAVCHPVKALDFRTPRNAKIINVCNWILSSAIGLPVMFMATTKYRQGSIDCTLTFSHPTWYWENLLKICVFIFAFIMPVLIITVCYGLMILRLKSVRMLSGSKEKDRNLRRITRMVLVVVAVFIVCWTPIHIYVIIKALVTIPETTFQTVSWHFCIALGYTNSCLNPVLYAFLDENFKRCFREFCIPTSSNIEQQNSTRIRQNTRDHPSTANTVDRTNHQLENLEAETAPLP
smiles,measurement,setting,value
Cc1ccc(CC(=O)Nc2cc(C)on2)cc1,IC50,[1],> 100 µM (inactive)
same,IC50,[2],> 100 µM (inactive)
same,IC50,[3],> 100 µM (not active)
same,IC50,[4],93.8 µM (active)
N#Cc1ccc(-c2cccnc2)nc1SCC(=O)Nc1sc2c(c1C#N)CCC2,EC50,[5],> 32 µM (inactive)
same,IC50,[6],> 50 µM (not active)
same,IC50,[7],> 32 µM (inactive)
same,EC50,[8],16 µM
same,EC50,[9],> 35 µM
same,IC50,[10],15 µM (active)
same,IC50,[11],3.69 µM (not active) and 149 nM (not active)
same,EC50,[12],> 32 µM (inactive)
O=c1c(O)c(-c2ccc3c(c2)OCO3)oc2ccccc12,CC50,[13],> 40 µM (active)
same,EC50,[14],41.7 µM (active)
same,EC50,[15],> 85.3 µM (inactive)
same,EC50,[16],> 85.3 µM (inactive)
same,EC50,[17],23.1 µM (active)
O=C(NCc1ccco1)c1c2c(nc3ccccc13)CCC2,IC50,[18],> 50 µM (inactive)
same,IC50,[19],4.33 µM (active)
same,IC50,[20],5.65 µM (active)
same,IC50,[21],16.4 µM (active)
